Here are results for 9 molecules from US20260209297A1, “ANTIMICROBIAL PEPTIDES AND MODIFICATIONS THEREOF” (priority 2022, published 2026).

Each structure is given as a SMILES string. Converted amounts (≈) assume the structure as drawn. Positions of bridges follow the written chain, without caps; N, C: chain ends. Non-standard residues stand in square brackets, D forms with d. Residues, ends and D or L forms follow the SMILES beside them. Dab = NCC[C@H](N)C(=O)O A value given as a limit tells only on which side of the number the result lay.

The test system of experiment [1] is B. cinerea. The experiment in a line: Semi-in planta gray mold assay on detached Nicotiana benthamiana leaves (drop inoculation). The experiment is classed as in vivo, Botrytis cinerea. Particulars: for gray mold symptoms, drop inoculation assay: 3 and 6 μM.
For another experiment, the system named is Botrytis cinerea T-4. Particulars: Table 18.
Experiment [2] relates to B. cinerea. In words: MIC antifungal assay in SFM culture media (with or without added salts). The class given is cell-based, Botrytis cinerea.

For the molecule `CC[C@H](C)[C@H](NC(=O)[C@H](CCCNC(=N)N)NC(=O)[C@H](CS)NC(=O)[C@H](CCCNC(=N)N)NC(=O)CNC(=O)[C@@H](N)CO)C(=O)N[C@@H](CC(C)C)C(=O)N[C@@H](Cc1ccccc1)C(=O)N[C@@H](CCCNC(=N)N)C(=O)N[C@@H](CS)C(=O)N[C@@H](Cc1ccccc1)C(=O)N[C@@H](CS)C(=O)N[C@H](C(=O)N[C@@H](CCCCN)C(=O)N[C@@H](CC(N)=O)C(=O)N[C@@H](CS)C(N)=O)[C@@H](C)O` [GMA1C_V1] (H-SGRCRILFRCFCTKNC-NH2; N-terminus assumed), the “gray mold symptoms, drop inoculation assay” value in the experiment on B. cinerea [1] is “failed to reduce disease symptoms”.
For `CC[C@H](C)[C@@H]1NC(=O)[C@H](CCCNC(=N)N)NC(=O)[C@@H](NC(=O)[C@H](CCCNC(=N)N)NC(=O)CNC(=O)[C@@H](N)CO)CSSC[C@@H](C(N)=O)NC(=O)[C@H](CC(N)=O)NC(=O)[C@H](CCCCN)NC(=O)[C@H]([C@@H](C)O)NC(=O)[C@H](Cc2c[nH]c3ccccc23)NC(=O)[C@H](Cc2ccccc2)NC(=O)[C@H](Cc2c[nH]c3ccccc23)NC(=O)[C@H](CCCNC(=N)N)NC(=O)[C@H](Cc2ccccc2)NC(=O)[C@H](CC(C)C)NC1=O` [GMA1C_V2] (H-SGRCRILFRWFWTKNC-NH2; disulfide 4-16; N-terminus assumed), in the experiment on B. cinerea [1] (1.5 μM), the “gray mold symptoms, drop inoculation assay, comparison within the peptide family” value is listed as “more effective”. Further, in the experiment with B. cinerea [1], the “gray mold symptoms, drop inoculation assay” value is reported as “completely abrogated gray mold symptoms”. For the same molecule, in the experiment with Botrytis cinerea T-4, the “MIC (μM) (SFM + 2 mM CaCl2)” value worked out at 3 µM, the “MIC (μM) (SFM + 100 mM KCl)” value was more than 12 µM and the “MIC (μM) (SFM + 100 mM NaCl)” value is 3 µM.
As to `CC[C@H](C)[C@@H]1NC(=O)[C@H](CCCNC(=N)N)NC(=O)[C@@H](NC(=O)[C@H](CCCNC(=N)N)NC(=O)CNC(=O)[C@@H](N)CO)CSSC[C@@H](C(N)=O)NC(=O)[C@H](CC(N)=O)NC(=O)[C@H](CCCCN)NC(=O)[C@H]([C@@H](C)O)NC(=O)[C@H](Cc2ccccc2)NC(=O)[C@H](Cc2ccc(O)cc2)NC(=O)[C@H](Cc2c[nH]c3ccccc23)NC(=O)[C@H](CCCNC(=N)N)NC(=O)[C@H](Cc2ccccc2)NC(=O)[C@H](CC(C)C)NC1=O` [GMA1C_V3] (H-SGRCRILFRWYFTKNC-NH2; disulfide 4-16; N-terminus assumed), in the experiment on Botrytis cinerea T-4, the “MIC (μM) SFM” value worked out at 1.5 µM (≈ 3.07 µg/mL), the “MIC (μM) (SFM + 2 mM CaCl2)” value came to 6 µM, the “MIC (μM) (SFM + 100 mM KCl)” value was more than 12 µM and the “MIC (μM) (SFM + 100 mM NaCl)” value came out at 3 µM.
In the case of `C[C@@H](O)[C@H](NC(=O)[C@H](CS)NC(=O)[C@H](Cc1ccccc1)NC(=O)[C@H](CS)NC(=O)[C@H](CCCNC(=N)N)NC(=O)[C@H](CCCNC(=N)N)NC(=O)[C@H](CCCNC(=N)N)NC(=O)[C@H](Cc1ccccc1)NC(=O)CNC(=O)[C@H](CCCNC(=N)N)NC(=O)[C@H](CS)NC(=O)[C@H](CCCNC(=N)N)NC(=O)CNC(=O)CN)C(=O)N[C@H](C(=O)N[C@@H](Cc1c[nH]cn1)C(=O)N[C@@H](CS)C(N)=O)[C@@H](C)O` [GMA4C_AC, reference compound] (H-GGRCRGFRRRCFCTTHC-NH2; N-terminus assumed), the “antifungal activity against B. cinerea in presence of cations” value in the experiment with B. cinerea [2] (100 mM NaCl or 100 mM KCl) was “retain their antifungal activity”. For the same molecule, the “SFM + 2 mM CaCl2 MIC (μM)” value in the experiment on B. cinerea [2] (B. cinerea, Table 4) was >6 (a few μM; in the experiment on B. cinerea [2] (Table 10), >6 (a few μM.
With `NCC[C@H](NC(=O)CNC(=O)[C@@H](N)Cc1ccccc1)C(=O)N[C@@H](CS)C(=O)N[C@@H](CCN)C(=O)NCC(=O)N[C@@H](Cc1ccccc1)C(=O)N[C@@H](CCN)C(=O)N[C@@H](CCN)C(=O)N[C@@H](CCN)C(=O)N[C@@H](CS)C(=O)N[C@@H](Cc1ccccc1)C(=O)N[C@@H](CS)C(=O)N[C@@H](Cc1c[nH]c2ccccc12)C(=O)N[C@@H](CCN)C(=O)N[C@@H](Cc1c[nH]c2ccccc12)C(=O)N[C@@H](CS)C(=O)O` [GMA4C_V5, FG(Dab)C(Dab)GF(Dab)(Dab)(Dab)CFCW(Dab)WC] (H-FG[Dab]C[Dab]GF[Dab][Dab][Dab]CFCW[Dab]WC-OH; N-terminus assumed), the “SFM + 2 mM CaCl2 MIC (μM)” value with B. cinerea [2] (B. cinerea, Table 4) was >6 (very μM; with B. cinerea [2] (Table 10), >6 (very μM.
As for `CC[C@H](C)[C@H](NC(=O)[C@H](CCCNC(=N)N)NC(=O)[C@@H](NC(=O)[C@H](Cc1c[nH]c2ccccc12)NC(=O)[C@H](Cc1ccccc1)NC(=O)[C@H](Cc1c[nH]c2ccccc12)NC(=O)[C@H](CCCNC(=N)N)NC(=O)[C@H](CCCNC(=N)N)NC(=O)[C@H](CCCNC(=N)N)NC(=O)[C@H](Cc1ccccc1)NC(=O)CNC(=O)[C@H](CCCCN)NC(=O)[C@H](CS)NC(=O)[C@H](CCCNC(=N)N)NC(=O)CNC(=O)CN)[C@@H](C)O)C(=O)N[C@@H](CS)C(N)=O` [GMA4C_V6A] (H-GGRCKGFRRRWFWTRIC-NH2; N-terminus assumed), the “antifungal activity relative to the wild-type GMA4C_AC control, B. cinerea” value in the experiment on B. cinerea [2] (in vitro, low cationic conditions) is on record as “four-fold increase”.
Take `CC(C)C[C@@H]1NC(=O)[C@@H](NC(=O)[C@H](C)NC(=O)CN)CSSC[C@@H](C(=O)N[C@@H](Cc2ccc(O)cc2)C(N)=O)NC(=O)[C@H](Cc2c[nH]cn2)NC(=O)[C@H](CCCNC(=N)N)NC(=O)[C@H](Cc2ccc(O)cc2)NC(=O)[C@H](Cc2ccc(O)cc2)NC(=O)[C@H](Cc2c[nH]c3ccccc23)NC(=O)[C@H](Cc2ccccc2)NC(=O)[C@H](Cc2c[nH]c3ccccc23)NC(=O)CNC(=O)[C@H](Cc2ccc(O)cc2)NC(=O)[C@H](Cc2c[nH]cn2)NC(=O)[C@H](CCCCN)NC(=O)[C@H](CO)NC(=O)[C@H](Cc2c[nH]cn2)NC(=O)[C@H](CCCNC(=N)N)NC(=O)[C@H](CC(N)=O)NC(=O)[C@H](CCCCN)NC1=O` [GMAOe1C_V3] (H-GACLKNRHSKHYGWFWYYRHCY-NH2; disulfide 3-21; N-terminus assumed): in the experiment on B. cinerea [1] (1.5 μM), the “gray mold symptoms, drop inoculation assay, comparison within the peptide family” value is listed as “more effective”. For the same molecule, in the experiment on Botrytis cinerea T-4, the “MIC (μM) SFM” value was found to be 1.5 µM (≈ 4.31 µg/mL), the “MIC (μM) (SFM + 2 mM CaCl2)” value is 3 to 6 µM and the “MIC (μM) (SFM + 100 mM NaCl)” value is 2 to 3 µM.
In the case of `CC(C)C[C@@H]1NC(=O)[C@@H](NC(=O)[C@H](C)NC(=O)CN)CSSC[C@@H](C(=O)N[C@@H](Cc2ccc(O)cc2)C(N)=O)NC(=O)[C@H](Cc2c[nH]cn2)NC(=O)[C@H](CCCNC(=N)N)NC(=O)[C@H](Cc2ccc(O)cc2)NC(=O)[C@H](Cc2ccc(O)cc2)NC(=O)[C@H](Cc2c[nH]c3ccccc23)NC(=O)[C@H](Cc2ccccc2)NC(=O)[C@H](Cc2ccccc2)NC(=O)CNC(=O)[C@H](Cc2ccc(O)cc2)NC(=O)[C@H](Cc2c[nH]cn2)NC(=O)[C@H](CCCCN)NC(=O)[C@H](CO)NC(=O)[C@H](Cc2c[nH]cn2)NC(=O)[C@H](CCCNC(=N)N)NC(=O)[C@H](CC(N)=O)NC(=O)[C@H](CCCCN)NC1=O` [GMAOe1C_V4] (H-GACLKNRHSKHYGFFWYYRHCY-NH2; disulfide 3-21; N-terminus assumed), in the experiment on Botrytis cinerea T-4, the “MIC (μM) SFM” value worked out at 1.5 µM (≈ 4.25 µg/mL) and the “MIC (μM) (SFM + 100 mM NaCl)” value was 6 µM.
`CC(C)C[C@H](NC(=O)[C@H](CS)NC(=O)[C@H](C)NC(=O)CN)C(=O)N[C@@H](CCCCN)C(=O)N[C@@H](CC(N)=O)C(=O)N[C@@H](CCCNC(=N)N)C(=O)N[C@@H](Cc1c[nH]cn1)C(=O)N[C@@H](CO)C(=O)N[C@@H](CCCCN)C(=O)N[C@@H](Cc1c[nH]cn1)C(=O)N[C@@H](Cc1ccc(O)cc1)C(=O)NCC(=O)N[C@@H](CS)C(=O)N[C@@H](Cc1ccc(O)cc1)C(=O)N[C@@H](CS)C(=O)N[C@@H](Cc1ccc(O)cc1)C(=O)N[C@@H](Cc1ccc(O)cc1)C(=O)N[C@@H](CCCNC(=N)N)C(=O)N[C@@H](Cc1c[nH]cn1)C(=O)N[C@@H](CS)C(=O)N[C@@H](Cc1ccc(O)cc1)C(N)=O` [GMAOe1C_WT, reference compound] (H-GACLKNRHSKHYGCYCYYRHCY-NH2; N-terminus assumed): the “reducing gray mold disease symptoms (lesion sizes)” value in the experiment with B. cinerea [1] (detached N. benthamiana leaves, 1.5 μM, 3 μM and 6 μM, 48 h) is recorded as “only effective at 6 μM”.
